The text below walks through data of PMC12085399, “Quantitative in vitro-to-in vivo extrapolation of human adrenergic and trace amine-associated receptor 1 potencies of pre-workout supplement ingredients using physiologically based kinetic modelling-based reverse dosimetry” (Archives of Toxicology, 2025).

The term Papp B→A denotes the apparent permeability from the basolateral to the apical side of a cell layer. By Papp A→B is commonly meant the apparent permeability from the apical to the basolateral side of a cell layer. A lower Papp A→B goes with poor permeation.

Read-outs that look alike come from different tables or passages of the source.

One data set can be described thus: in vitro. The settings on record: human; for Papp B→A at 60 min, 10 µM: Caco-2, pH 7.4; for recovery at 60 min, 10 µM: after 60 min, mean ± SD. As for the experimental part: (§1) Caco-2 cells (ATCC, Manassas, VA, USA; passage 30–44) were cultured in DMEM (Gibco, New York, USA) containing 4.5 g/L d-glucose, 4 mM L-glutamine and supplemented with 10% FBS (Gibco, Grand Island, NY, USA), 1% minimal essential medium non-essential amino acids (Gibco, Paisley, UK), 100 units/mL penicillin and 100 µg/mL streptomycin (Gibco, Grand Island, NY, USA). Cells were seeded at a density of 4.0 × 10^4 cells/cm^2 on polyester transwell insert membranes (12 mm insert, 0.4 µm pore size; Corning incorporated, Kennebunk, ME, USA). Cells were maintained in a humidified incubator with 5% CO2 at 37 °C for 21 or 22 days in 0.5 mL and 1.5 mL medium in the apical and basolateral compartments, respectively. The medium was refreshed every two or three days and always one day before the permeability assay.
(§2) On the day of the experiment, cells were washed twice with HBSS without phenol red (pH 7.4; Sigma-Aldrich, Steinheim, Germany) supplemented with 0.35 g/L sodium bicarbonate and 25 mM HEPES and they were equilibrated in this supplemented HBSS for 15 min in a humidified incubator with 5% CO2 at 37 °C. […] These stocks were diluted to a final concentration of 10 µM in pre-warmed supplemented HBSS (final DMSO level = 0.1%). After 15 min, the transepithelial electrical resistance (TEER) was measured with an Epithelial Voltohmmeter (World Precision Instruments, Sarasota, USA). Compound transport was studied in two directions: from the apical to the basolateral compartment (A-B) and from the basolateral to the apical compartment (B-A). For A-B experiments, 450 µL of the compound (10 µM) was added to the apical side and 1200 µL supplemented HBSS was added to the basolateral side. A sample of 50 µL was removed immediately from the apical compartment at time point zero. After 15 and 30 min, samples were taken from the basolateral compartment. Cells were kept in the incubator during the experiment. After 60 min, medium from both compartments was sampled, cells were washed twice with supplemented HBSS and were maintained in the incubator. After 15 min, the TEER was measured again to check for epithelial barrier damage due to compound exposure. After this, cells were lysed in RIPA buffer (Thermo Scientific, Rockford, IL, USA). For B-A experiments, 400 µL of supplemented HBSS was added to the apical side and 1250 µL of the compound (10 µM) was added to the basolateral side. A sample of 50 µL was removed immediately from the basolateral compartment at time point zero. After 15 and 30 min, samples were taken from the apical compartment. After 60 min, samples were taken similarly as in A-B experiments. The sampled medium and cell lysates were stored at −20 °C till the day of the liquid chromatography–mass spectrometry (LC–MS/MS) analysis. All experiments were run in duplicate. The compounds were quantified with LC–MS/MS as described in Sect. "LC–MS/MS analysis".
(§3) Before chemical analysis, cell lysates were two times diluted in ice-cold methanol and centrifuged at 15,000 rpm at 4 °C. The supernatant was then injected into the LC–MS/MS system. Sampled buffer from donor compartments was diluted 40 times in buffer and samples from the receiver compartment were analysed undiluted. Standards were prepared in the same assay buffer to quantify the amount of compound in medium samples. For quantification of compounds in cell lysates, standards were prepared in a mixture of 50% RIPA buffer and 50% methanol.
(§4) All data are presented as mean ± SD.
(§5) For the < Tsi > a value of 3.32 h was used (Grandoni et al. [2019]).

In another data set the test system is Caco-2 cells. The data set is described as follows: in vitro. The following applies: scaled from corrected Caco-2 Papp A-B, human. As for the experimental part: as §1, §2, §3, §4, §5
Another data set deals with ADRα2A. Nature of the data set: PBK modelling-based reverse dosimetry of in vitro EC50 to ED50, ADRα2A. The settings on record: predicted human oral ED50 from in vitro EC50 (Pinckaers et al. [2024]) and modelled Cmax plasma venous. The text has this:
(§6) The in vitro effect concentrations (EC50), for activation of the α1A, α1B, α1D, α2A, α2B, β1 and β2 ADR activation and the activation of TAAR1, were obtained from our previous study (Pinckaers et al. [2024]).

In the next data set the test system is ADRα1D. The data set is described as follows: PBK modelling-based reverse dosimetry of in vitro EC50 to ED50, ADRα1D. The following applies: predicted human oral ED50 from in vitro EC50 (Pinckaers et al. [2024]) and modelled Cmax plasma venous.
Source text: as §6

For a further data set, the system named is ADRα1A. Nature of the data set: PBK modelling-based reverse dosimetry of in vitro EC50 to ED50, ADRα1A. The settings on record: predicted human oral ED50 from in vitro EC50 (Pinckaers et al. [2024]) and modelled Cmax plasma venous.
Source text: as §6

The test system of the next data set is ADRβ2. The data set is described as follows: PBK modelling-based reverse dosimetry of in vitro EC50 to ED50, ADRβ2. The settings on record: predicted human oral ED50 from in vitro EC50 (Pinckaers et al. [2024]) and modelled Cmax plasma venous.
Source text: as §6

The next data set has as its system TAAR1. The data set is described as follows: PBK modelling-based reverse dosimetry of in vitro EC50 to ED50, TAAR1. More on the design: species or system human. The settings on record: predicted human oral ED50 from in vitro EC50 (Pinckaers et al. [2024]) and modelled Cmax plasma venous.
Source text: as §6

The next data set deals with ADRα1B. Nature of the data set: PBK modelling-based reverse dosimetry of in vitro EC50 to ED50, ADRα1B. The settings on record: predicted human oral ED50 from in vitro EC50 (Pinckaers et al. [2024]) and modelled Cmax plasma venous.
Source text: as §6

A short description of data set [1]: In vitro hepatic clearance by human liver S9 (compound depletion). The format is in vitro ADME. Here is the method: In vitro intrinsic hepatic clearance (CLint) values of the phenethylamine analogues were determined in experiments with pooled human liver S9 (HLS9; Corning, Woburn, MA, USA and Gibco, USA), by measuring the rate of compound depletion. Stocks of 1 mM PEA compounds were prepared in DMSO and stocks of 10 mg/mL alamethicin were prepared in methanol. The final incubation mixtures consisted of 1 µM of PEA compound (0.1% DMSO) in 100 mM potassium phosphate buffer with 5 mM magnesium chloride (pH 7.4) supplemented with 0.025 mg/mL alamethicin (0.25% methanol) and 0.1–2 mg/mL HLS9. […] Incubation mixtures were first pre-incubated at 37 °C in a shaking incubator at 300 rpm for 5 min. After 5 min, the reaction was initiated by adding a co-factor mix in supplemented buffer with final concentrations of 3 mM nicotinamide adenine dinucleotide phosphate (NADPH; for oxidation, reduction and hydrolysis), 5 mM uridine diphosphate glucuronic acid (UDPGA; for glucuronidation), 0.2 mM adenosine 3’-phosphate 5’-phosphosulfate lithium salt hydrate (PAPS; for sulfation) and 0.2 mM S-(5’-Adenosyl)-L-methionine p-toluenesulfonate salt (SAM; for methylation). The final incubation volume was 100 µL and incubations were performed in 1.5 mL Safe-Lock Eppendorf tubes (Eppendorf) in a shaking incubator (300 rpm) at 37 °C (Eppendorf Thermomixer). Incubations were terminated by adding 100 µL ice-cold acetonitrile after, 0, 2.5, 5, 10, 20, 40 and 60 min. Then, samples were vortexed, put on ice and stored at -20 °C until the day of the LC–MS/MS analysis. Controls of incubation mixtures without HLS9 or mixtures without co-factors were also included. Two independent experiments, both in duplicate, were performed on different days. On the day of the LC–MS/MS analysis, samples were thawed and centrifuged at 15,000 rpm for 10 min. The supernatant was collected in glass insert vials for LC injection (BGB Analytik, Harderwijk, The Netherlands). Details on the methods of the LC–MS/MS analysis are described in Sect. "LC–MS/MS analysis". After determining the PEA (analogue) amount at the different time points, the CLint was calculated. The natural logarithm of compound concentrations was plotted against time and the slope of this curve represented the elimination rate constant k (in 1/min). The half-life (t1/2 in minutes) was calculated by: ln (2)/k (in 1/min). The volume of incubation (V) in µL/mg protein was determined by: 1000 / HLS9 concentration (in mg/mL). Finally, CLint could be calculated by: CLintμL/min/mg protein=VμL/mg protein∗ln2/t1/2min.
The fraction unbound in these in vitro liver clearance incubations was calculated with the method of (Hallifax and Houston [2006]) in which unspecific binding in HLS9 incubations was assumed to be the same as in liver microsomal incubations. The in vitro obtained HLS9 CLint values were corrected for protein binding in the HLS9 incubation and were scaled to a whole liver by using a scaling factor of 121 mg HLS9/g liver (Houston and Galetin [2008]).

The mark [2] stands for this setting: Caco-2, pH 7.4, Papp A-B, Caco-2, apical to basolateral, 10 µM, HBSS pH 7.4, mean ± SD, duplicate.

In the data set “in vitro”, `COCCc1ccc(OCC(O)CNC(C)C)cc1` (centres unmarked) [Metoprolol, metoprolol, reference compound] gave a Papp B→A at 60 min, 10 µM of 9.25 ± 0.17 ×10⁻⁶ cm/s. This compound also came in with a Papp A→B at 60 min, 10 µM in “in vitro” (setting [2]) of 11.2 ± 0.197 ×10⁻⁶ cm/s.

Compound `NCC(O)c1ccc(O)cc1` (centres unmarked) [p-Octopamine, octopamine] registered a Papp B→A at 60 min, 10 µM in the data set “in vitro” of 0.117 ± 0.0171 ×10⁻⁶ cm/s. The apparent permeability from apical to basolateral (Papp A→B) at 60 min, 10 µM in “in vitro” (Caco-2, pH 7.4, Papp A-B corrected, corrected for the difference between Papp A-B of metoprolol in this study and in literature) stood at 0.584 ×10⁻⁶ cm/s; in “in vitro” (setting [2]) it was 0.164 ± 0.0701 ×10⁻⁶ cm/s. Besides, the recovery at 60 min, 10 µM was found to be 98.9 ± 1.77% in the data set “in vitro” (Caco-2, pH 7.4, Recovery (A-B), Caco-2, A-B experiments) and 109 ± 15% in “in vitro” (Caco-2, pH 7.4, Recovery (B-A), Caco-2, B-A experiments). Moreover, the “fa (fraction absorbed)” value in the data set with Caco-2 cells is on record as 0.947. Moreover, in the data set with Caco-2 cells, the “ka (absorption rate constant)” value came to 0.395 h⁻¹. In addition, in the data set on ADRα2A, the “ADRα2A ED50” value is “– (compounds with a dash (-) did not activate the receptors in vitro at concentrations ≤ 300 µM)”. In addition, the “ADRα1D ED50” value with ADRα1D was 1.72 mg/kg bw. Also, the “ADRα1A ED50” value with ADRα1A is given as 15.7 mg/kg bw. Also, the “ADRβ2 ED50” value in the data set on ADRβ2 is “– (compounds with a dash (-) did not activate the receptors in vitro at concentrations ≤ 300 µM)”. The “TAAR1 ED50” value with TAAR1 is given as 65.8 mg/kg bw. In addition, the “ADRα1B ED50” value in the data set on ADRα1B is reported as 5.58 mg/kg bw. Also, the “Predicted intrinsic hepatic metabolic clearance CLmet” value in [1] (CLint,u scaled to a whole liver, 121 mg HLS9/g liver, human) was 75.4 L/h. Further, the “metabolism in incubations without co-factor mix” value in [1] (HLS9 without co-factor mix) is recorded as “metabolized in incubations without co-factor mix”. Moreover, the k el at 1 µM in [1] (human, pH 7.4) is 0.000203 s⁻¹. The microsomal CLint at 1 µM stood at 7.06 µL/min/mg in [1] (human, s9, pH 7.4, CLint app corrected for unspecific protein (HLS9) binding, read-out: In vitro CLint,u) and 6.05 µL/min/mg in data set [1] (human, s9, pH 7.4, human liver S9 with co-factor mix (NADPH, UDPGA, PAPS, SAM), 1 µM, read-out: In vitro CLint app).
